Reference: patent US11970497B2, “Tricyclic AKR1C3 dependent KARS inhibitors” (Novartis AG, priority 2019, dated 2024)

Assays:
[1] = test system: H460 (NRF2 pathway mutant cell line with high AKR1C3 expression); experiment: In vitro cell proliferation assay (CellTiter-Glo), H460; format: cell-based; settings: Homo sapiens, NCI-H460, 72 h; H460 cells, 3 days, CellTiter-Glo, top concentration 10 μM; read-out: H460 Qualified absolute AC50
Source text: (§1) Cellular Proliferation Assay to Assess Compounds Activity in H460 (NRF2 Pathway Mutant Cell Line with High AKR1C3 Expression) and Hara (NRF2 Pathway Wild Type Cell Line with Low AKR1C3 Expression).
(§2) The cell lines A549 and H460 are NRF2 pathway mutant and specifically contain genetic alterations in KEAP1 (A549: G333C, H460: D236H) (Singh A. et al., 2006 PLoS Medicine 3(10) e420). In these cell lines the NRF2 pathway is constitutively active and these cells express high levels of NRF2 protein and NRF2 pathway target gene AKR1C3. […] They have low AKR1C3 expression.
(§3) In Vitro Cell Proliferation Assay
(§4) Day 1, for H460 800 cells/well or 40 μL of 2×10^4 cells/mL and for Hara 2000 cells/well or 40 μL of 5×10^4 cells/mL medium (RPMI-1640 supplemented with 10% fetal bovine serum and 1% penicillin/streptomycin) were seeded into 384-well tissue culture plates. Day 2, compounds were serially diluted 1:5 to generate 8 point dose response curves and added to cells for a final top concentration of 10 μM. DMSO (1%) control and MG132 (30 μM) controls are added in columns 23 and 24 respectively on each plate for positive and negative control. After incubation for 3 days at 37° C./5% CO2, 30 μl of CellTiter-Glo reagent (Promega) was added and the plates were incubated for 10 min on plate shaker. The amount of luminescence was determined using a Perkin Elmer Envision plate reader. CellTiter-Glo luminescence values of cells treated with DMSO and MG132 controls were used to normalize the data and calculate percentage activity and AC50s of compounds using the Helios Software suite.

[2] = test system: Hara (NRF2 pathway wild type cell line with low AKR1C3 expression); experiment: In vitro cell proliferation assay (CellTiter-Glo), Hara; format: cell-based; settings: 72 h; Hara cells, 3 days, CellTiter-Glo, top concentration 10 μM; read-out: HARA Qualified absolute AC50
Source text: as §1, §2, §3, §4

Q: Which results are given for CCN1c2ccc(F)cc2C(=O)CC12CCN(C(=O)NCc1ccc(F)c(C(N)=O)c1)CC2 [Example 13, N-(3-carbamoyl-4-fluorobenzyl)-1′-ethyl-6′-fluoro-4′-oxo-3′,4′-dihydro-1′H-spiro[piperidine-4,2′-quinoline]-1-carboxamide]?
A: AC50 [1]: 25 nM; AC50 [2]: 7950 nM

Q: Which AC50 [1] does the source give for COCCN1c2ccc(F)cc2C(=O)CC12CCN(C(=O)NCc1ccc(F)cc1)CC2 [Example 14, 6′-fluoro-N-(4-fluorobenzyl)-1′-(2-methoxyethyl)-4′-oxo-3′,4′-dihydro-1′H-spiro[piperidine-4,2′-quinoline]-1-carboxamide] here?
A: 29 nM

Q: What about the AC50 [2] of the same compound?
A: 795 nM

Q: For O=C1CC2(CCN(C(=O)NCc3ccc(F)c(-c4cnco4)c3)CC2)Nc2ccc(F)cc21 [Example 15, 6′-fluoro-N-(4-fluoro-3-(oxazol-5-yl)benzyl)-4′-oxo-3′,4′-dihydro-1′H-spiro[piperidine-4,2′-quinoline]-1-carboxamide], which AC50 [1] is on record?
A: 29 nM

Q: And the AC50 [2]?
A: 9440 nM

Q: With O=C1CC2(CCN(C(=O)NCc3ccc(F)cc3F)CC2)Nc2ccc(F)cc21 [Example 16, N-(2,4-difluorobenzyl)-6′-fluoro-4′-oxo-3′,4′-dihydro-1′H-spiro[piperidine-4,2′-quinoline]-1-carboxamide] as the compound, how does the AC50 [1] read?
A: 29 nM

Q: What about the AC50 [2] of the same compound?
A: > 10000 nM

Q: For CN1c2ccc(F)cc2C(=O)CC12CCN(C(=O)NCc1cc(NCCO)c(F)cc1F)CC2 [Example 17, N-(2,4-difluoro-5-((2-hydroxyethyl)amino)benzyl)-6′-fluoro-1′-methyl-4′-oxo-3′,4′-dihydro-1′H-spiro[piperidine-4,2′-quinoline]-1-carboxamide], which AC50 [1] is on record?
A: 30 nM

Q: And the AC50 [2]?
A: > 10000 nM

Q: Which results are given for CCN1c2ccc(F)cc2C(=O)CC12CCN(C(=O)NCc1cc(NCCO)c(F)cc1F)CC2 [Example 18, N-(2,4-difluoro-5-((2-hydroxyethyl)amino)benzyl)-1′-ethyl-6′-fluoro-4′-oxo-3′,4′-dihydro-1′H-spiro[piperidine-4,2′-quinoline]-1-carboxamide]?
A: AC50 [1]: 30 nM; AC50 [2]: 4190 nM

Q: How did the AC50 [1] turn out when O=C1CC2(CCN(C(=O)NCc3ccc(F)cc3)CC2)N(CCO)c2ccc(F)cc21 [Example 19, 6′-fluoro-N-(4-fluorobenzyl)-1′-(2-hydroxyethyl)-4′-oxo-3′,4′-dihydro-1′H-spiro[piperidine-4,2′-quinoline]-1-carboxamide] was run?
A: 31 nM

Q: And the AC50 [2]?
A: 694 nM

Q: COCCNc1cc(F)ccc1CNC(=O)N1CCC2(CC1)CC(=O)c1cc(F)ccc1N2C [Example 20, 6′-fluoro-N-(4-fluoro-2-((2-methoxyethyl)amino)benzyl)-1′-methyl-4′-oxo-3′,4′-dihydro-1′H-spiro[piperidine-4,2′-quinoline]-1-carboxamide] was tested. Which AC50 [1] did it give?
A: 33 nM

Q: What about the AC50 [2] of the same compound?
A: > 10000 nM

Q: Which results are given for COCCOc1cc(CNC(=O)N2CCC3(CC2)CC(=O)c2cc(F)ccc2N3C)ccc1F [Example 21, 6′-fluoro-N-(4-fluoro-3-(2-methoxyethoxy)benzyl)-1′-methyl-4′-oxo-3′,4′-dihydro-1′H-spiro[piperidine-4,2′-quinoline]-1-carboxamide]?
A: AC50 [1]: 34 nM; AC50 [2]: > 10000 nM

Q: Which AC50 [1] does the source give for CC(C)S(=O)(=O)Nc1cc(CNC(=O)N2CCC3(CC2)CC(=O)c2cc(F)ccc2N3)ccc1F [Example 23, 6′-fluoro-N-(4-fluoro-3-((1-methylethyl)sulfonamido)benzyl)-4′-oxo-3′,4′-dihydro-1′H-spiro[piperidine-4,2′-quinoline]-1-carboxamide] here?
A: 6900 nM

Q: What about the AC50 [2] of the same compound?
A: > 10000 nM

Q: NC(=O)c1cc(CNC(=O)N2CCC3(CC2)CC(=O)c2cc(F)ccc2N3)ccc1F [Example 24, N-(3-carbamoyl-4-fluorobenzyl)-6′-fluoro-4′-oxo-3′,4′-dihydro-1′H-spiro[piperidine-4,2′-quinoline]-1-carboxamide] was tested. Which AC50 [1] did it give?
A: 46 nM

Q: What about the AC50 [2] of the same compound?
A: 5940 nM

Q: For CCN1c2ccc(F)cc2C(=O)CC12CCN(C(=O)NCc1ccc(F)c(NCCO)c1)CC2 [Example 25, 1′-ethyl-6′-fluoro-N-(4-fluoro-3-((2-hydroxyethyl)amino)benzyl)-4′-oxo-3′,4′-dihydro-1′H-spiro[piperidine-4,2′-quinoline]-1-carboxamide], which AC50 [1] is on record?
A: 47 nM

Q: What about the AC50 [2] of the same compound?
A: 1660 nM

Q: With CCN1c2ccc(F)cc2C(=O)CC12CCN(C(=O)NCc1ccc(F)c(N)c1F)CC2 [Example 26, N-(3-amino-2,4-difluorobenzyl)-1′-ethyl-6′-fluoro-4′-oxo-3′,4′-dihydro-1′H-spiro[piperidine-4,2′-quinoline]-1-carboxamide] as the compound, how does the AC50 [1] read?
A: 47 nM

Q: What about the AC50 [2] of the same compound?
A: > 10000 nM

Q: Which results are given for CN1c2ccc(F)cc2C(=O)CC12CCN(C(=O)NCc1ccc(F)c(N)c1)CC2 [Example 27, N-(3-amino-4-fluorobenzyl)-6′-fluoro-1′-methyl-4′-oxo-3′,4′-dihydro-1′H-spiro[piperidine-4,2′-quinoline]-1-carboxamide]?
A: AC50 [1]: 48 nM; AC50 [2]: > 10000 nM

Q: What does the source list for CN1c2ccc(F)cc2C(=O)CC12CCN(C(=O)NCc1ccc(F)c(NCCOP(=O)(O)O)c1)CC2 [Example 28]?
A: AC50 [1]: 52 nM; AC50 [2]: > 10000 nM

Q: With CCN1c2ccc(F)cc2C(=O)CC12CCN(C(=O)NCc1ccc(F)c(N)c1)CC2 [Example 29, N-(3-amino-4-fluorobenzyl)-1′-ethyl-6′-fluoro-4′-oxo-3′,4′-dihydro-1′H-spiro[piperidine-4,2′-quinoline]-1-carboxamide] as the compound, how does the AC50 [1] read?
A: 54 nM

Q: What about the AC50 [2] of the same compound?
A: > 10000 nM

Q: Which results are given for NS(=O)(=O)c1cc(CNC(=O)N2CCC3(CC2)CC(=O)c2cc(F)ccc2N3)ccc1F [Example 30, 6′-fluoro-N-(4-fluoro-3-sulfamoylbenzyl)-4′-oxo-3′,4′-dihydro-1′H-spiro[piperidine-4,2′-quinoline]-1-carboxamide]?
A: AC50 [1]: 61 nM; AC50 [2]: > 10000 nM

Q: Which results are given for O=C1CC2(CCN(C(=O)NCc3ccccc3)CC2)Nc2ccc(F)cc21 [Example 33, N-benzyl-6′-fluoro-4′-oxo-3′,4′-dihydro-1′H-spiro[piperidine-4,2′-quinoline]-1-carboxamide]?
A: AC50 [1]: 75 nM; AC50 [2]: 1190 nM

Q: Which AC50 [1] does the source give for O=C1CC2(CCN(C(=O)NCc3cccc(-c4cnco4)c3)CC2)Nc2c(F)cc(F)cc21 [Example 35, 6′,8′-difluoro-N-(3-(oxazol-5-yl)benzyl)-4′-oxo-3′,4′-dihydro-1′H-spiro[piperidine-4,2′-quinoline]-1-carboxamide] here?
A: 77 nM

Q: What about the AC50 [2] of the same compound?
A: 2720 nM

Q: With NC(=O)c1coc(CNC(=O)N2CCC3(CC2)CC(=O)c2cc(F)cc(F)c2N3)c1 [Example 38, N-((4-carbamoylfuran-2-yl)methyl)-6′,8′-difluoro-4′-oxo-3′,4′-dihydro-1′H-spiro[piperidine-4,2′-quinoline]-1-carboxamide] as the compound, how does the AC50 [1] read?
A: 82 nM

Q: And the AC50 [2]?
A: > 10000 nM

Q: What does the source list for O=C1CC2(CCN(C(=O)NCc3ccc(O)cc3)CC2)Nc2ccc(F)cc21 [Example 39, 6′-fluoro-N-(4-hydroxybenzyl)-4′-oxo-3′,4′-dihydro-1′H-spiro[piperidine-4,2′-quinoline]-1-carboxamide]?
A: AC50 [1]: 82 nM; AC50 [2]: > 10000 nM

Q: Which AC50 [1] does the source give for CN1c2ccc(F)cc2C(=O)CC12CCN(C(=O)NCc1ccc(F)c(C(N)=O)c1)CC2 [Example 41, N-(3-carbamoyl-4-fluorobenzyl)-6′-fluoro-1′-methyl-4′-oxo-3′,4′-dihydro-1′H-spiro[piperidine-4,2′-quinoline]-1-carboxamide] here?
A: 93 nM

Q: What about the AC50 [2] of the same compound?
A: > 10000 nM

Q: With CN1c2ccc(F)cc2C(=O)CC12CCN(C(=O)NCc1ccc(F)c(N)c1F)CC2 [Example 42, N-(3-amino-2,4-difluorobenzyl)-6′-fluoro-1′-methyl-4′-oxo-3′,4′-dihydro-1′H-spiro[piperidine-4,2′-quinoline]-1-carboxamide] as the compound, how does the AC50 [1] read?
A: 94 nM

Q: And the AC50 [2]?
A: > 10000 nM

Q: Which results are given for O=C1CC2(CCN(C(=O)NCc3ccc(F)cc3O)CC2)Nc2ccc(F)cc21 [Example 43, 6′-fluoro-N-(4-fluoro-2-hydroxybenzyl)-4′-oxo-3′,4′-dihydro-1′H-spiro[piperidine-4,2′-quinoline]-1-carboxamide]?
A: AC50 [1]: 99 nM; AC50 [2]: > 10000 nM

Q: For CN1c2ccc(F)cc2C(=O)CC12CCN(C(=O)NCc1ccc(F)c(NC[C@H](O)CO)c1)CC2 [Example 45, (S)—N-(3-((2,3-dihydroxypropyl)amino)-4-fluorobenzyl)-6′-fluoro-1′-methyl-4′-oxo-3′,4′-dihydro-1′H-spiro[piperidine-4,2′-quinoline]-1-carboxamide], which AC50 [1] is on record?
A: 100 nM

Q: And the AC50 [2]?
A: > 10000 nM

Q: Which results are given for O=C1CC2(CCN(C(=O)NCc3ccoc3)CC2)Nc2c(F)cc(F)cc21 [Example 46, 6′,8′-difluoro-N-(furan-3-ylmethyl)-4′-oxo-3′,4′-dihydro-1′H-spiro[piperidine-4,2′-quinoline]-1-carboxamide]?
A: AC50 [1]: 105 nM; AC50 [2]: 2940 nM

Q: Which results are given for O=C1CC2(CCN(C(=O)NCc3cc[nH]n3)CC2)Nc2ccc(F)cc21 [Example 47, N-((1H-pyrazol-3-yl)methyl)-6′-fluoro-4′-oxo-3′,4′-dihydro-1′H-spiro[piperidine-4,2′-quinoline]-1-carboxamide]?
A: AC50 [1]: 106 nM; AC50 [2]: > 10000 nM
